Type in all cases: cell-based
The target in one test is chicken TRPM8 (cTRPM8) (Gallus gallus, UniProt A0AA95FIJ1).
In test [1] the target is T1, human TRPM8 (hTRPM8) (Homo sapiens, UniProt Q7Z2W7).
Test [2] concerns the target T2, rat TRPM8 (rTRPM8) (Rattus norvegicus, UniProt Q8R455).
Test [3] addresses T1, human TRPM8 (hTRPM8). Nature of the test: calcium imaging.
The target in test [4] is T2, rat TRPM8 (rTRPM8). The experiment in a line: calcium imaging.

T2 sequence (Q8R455 whole entry): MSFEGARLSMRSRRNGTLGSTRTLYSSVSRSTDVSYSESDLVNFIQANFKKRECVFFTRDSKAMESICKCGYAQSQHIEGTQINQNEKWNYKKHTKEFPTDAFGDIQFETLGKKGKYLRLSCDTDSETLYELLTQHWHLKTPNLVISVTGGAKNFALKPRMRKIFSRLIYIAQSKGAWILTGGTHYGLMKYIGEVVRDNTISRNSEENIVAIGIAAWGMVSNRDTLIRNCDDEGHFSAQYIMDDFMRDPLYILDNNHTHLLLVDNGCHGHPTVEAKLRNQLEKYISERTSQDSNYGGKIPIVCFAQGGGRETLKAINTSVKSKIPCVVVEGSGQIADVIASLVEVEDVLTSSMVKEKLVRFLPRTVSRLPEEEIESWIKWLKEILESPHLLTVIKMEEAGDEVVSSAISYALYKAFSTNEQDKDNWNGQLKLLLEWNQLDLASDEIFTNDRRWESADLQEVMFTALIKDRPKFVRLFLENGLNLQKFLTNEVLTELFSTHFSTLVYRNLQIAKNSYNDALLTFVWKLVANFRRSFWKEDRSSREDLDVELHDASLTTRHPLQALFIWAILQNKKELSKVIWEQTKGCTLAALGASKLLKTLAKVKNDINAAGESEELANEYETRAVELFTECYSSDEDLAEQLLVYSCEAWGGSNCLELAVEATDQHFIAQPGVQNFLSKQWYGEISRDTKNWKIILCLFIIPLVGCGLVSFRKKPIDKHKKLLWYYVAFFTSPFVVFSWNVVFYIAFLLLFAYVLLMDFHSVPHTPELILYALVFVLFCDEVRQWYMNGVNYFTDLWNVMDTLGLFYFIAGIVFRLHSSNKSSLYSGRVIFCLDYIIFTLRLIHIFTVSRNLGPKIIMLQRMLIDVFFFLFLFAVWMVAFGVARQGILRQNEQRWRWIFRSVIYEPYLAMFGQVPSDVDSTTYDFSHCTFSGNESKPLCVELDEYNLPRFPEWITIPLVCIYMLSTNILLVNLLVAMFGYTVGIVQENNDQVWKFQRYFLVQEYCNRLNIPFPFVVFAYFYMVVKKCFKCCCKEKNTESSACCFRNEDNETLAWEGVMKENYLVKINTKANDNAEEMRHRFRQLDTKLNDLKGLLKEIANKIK
T1 sequence (Q7Z2W7 whole entry): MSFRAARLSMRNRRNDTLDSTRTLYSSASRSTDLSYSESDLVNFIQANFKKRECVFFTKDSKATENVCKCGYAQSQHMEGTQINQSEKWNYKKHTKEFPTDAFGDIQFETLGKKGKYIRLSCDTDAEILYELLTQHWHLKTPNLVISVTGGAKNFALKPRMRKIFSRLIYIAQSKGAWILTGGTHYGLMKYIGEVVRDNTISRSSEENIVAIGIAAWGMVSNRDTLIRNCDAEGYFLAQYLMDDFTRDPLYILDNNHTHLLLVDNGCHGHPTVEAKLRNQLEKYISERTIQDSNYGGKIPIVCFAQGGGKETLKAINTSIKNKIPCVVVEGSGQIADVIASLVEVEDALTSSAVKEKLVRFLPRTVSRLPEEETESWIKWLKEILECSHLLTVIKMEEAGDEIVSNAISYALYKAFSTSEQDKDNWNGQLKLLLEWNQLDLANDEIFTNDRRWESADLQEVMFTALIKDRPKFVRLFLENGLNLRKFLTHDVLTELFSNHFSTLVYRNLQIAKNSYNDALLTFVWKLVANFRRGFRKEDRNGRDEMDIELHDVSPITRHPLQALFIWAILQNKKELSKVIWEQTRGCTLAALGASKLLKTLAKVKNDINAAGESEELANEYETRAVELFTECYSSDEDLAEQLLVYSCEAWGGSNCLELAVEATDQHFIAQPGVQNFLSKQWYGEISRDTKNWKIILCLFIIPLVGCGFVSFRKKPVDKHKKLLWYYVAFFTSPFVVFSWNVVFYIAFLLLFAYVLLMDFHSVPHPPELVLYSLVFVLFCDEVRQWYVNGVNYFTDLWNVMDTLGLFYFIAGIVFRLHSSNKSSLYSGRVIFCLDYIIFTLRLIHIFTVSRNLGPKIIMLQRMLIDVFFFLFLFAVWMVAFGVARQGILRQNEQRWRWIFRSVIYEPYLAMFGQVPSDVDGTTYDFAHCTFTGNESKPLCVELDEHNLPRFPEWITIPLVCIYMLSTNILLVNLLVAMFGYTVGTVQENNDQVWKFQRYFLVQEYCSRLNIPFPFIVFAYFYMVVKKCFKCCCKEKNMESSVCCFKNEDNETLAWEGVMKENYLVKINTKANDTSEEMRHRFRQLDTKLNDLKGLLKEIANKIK
chicken TRPM8 (cTRPM8), sequence (A0AA95FIJ1 1-1111): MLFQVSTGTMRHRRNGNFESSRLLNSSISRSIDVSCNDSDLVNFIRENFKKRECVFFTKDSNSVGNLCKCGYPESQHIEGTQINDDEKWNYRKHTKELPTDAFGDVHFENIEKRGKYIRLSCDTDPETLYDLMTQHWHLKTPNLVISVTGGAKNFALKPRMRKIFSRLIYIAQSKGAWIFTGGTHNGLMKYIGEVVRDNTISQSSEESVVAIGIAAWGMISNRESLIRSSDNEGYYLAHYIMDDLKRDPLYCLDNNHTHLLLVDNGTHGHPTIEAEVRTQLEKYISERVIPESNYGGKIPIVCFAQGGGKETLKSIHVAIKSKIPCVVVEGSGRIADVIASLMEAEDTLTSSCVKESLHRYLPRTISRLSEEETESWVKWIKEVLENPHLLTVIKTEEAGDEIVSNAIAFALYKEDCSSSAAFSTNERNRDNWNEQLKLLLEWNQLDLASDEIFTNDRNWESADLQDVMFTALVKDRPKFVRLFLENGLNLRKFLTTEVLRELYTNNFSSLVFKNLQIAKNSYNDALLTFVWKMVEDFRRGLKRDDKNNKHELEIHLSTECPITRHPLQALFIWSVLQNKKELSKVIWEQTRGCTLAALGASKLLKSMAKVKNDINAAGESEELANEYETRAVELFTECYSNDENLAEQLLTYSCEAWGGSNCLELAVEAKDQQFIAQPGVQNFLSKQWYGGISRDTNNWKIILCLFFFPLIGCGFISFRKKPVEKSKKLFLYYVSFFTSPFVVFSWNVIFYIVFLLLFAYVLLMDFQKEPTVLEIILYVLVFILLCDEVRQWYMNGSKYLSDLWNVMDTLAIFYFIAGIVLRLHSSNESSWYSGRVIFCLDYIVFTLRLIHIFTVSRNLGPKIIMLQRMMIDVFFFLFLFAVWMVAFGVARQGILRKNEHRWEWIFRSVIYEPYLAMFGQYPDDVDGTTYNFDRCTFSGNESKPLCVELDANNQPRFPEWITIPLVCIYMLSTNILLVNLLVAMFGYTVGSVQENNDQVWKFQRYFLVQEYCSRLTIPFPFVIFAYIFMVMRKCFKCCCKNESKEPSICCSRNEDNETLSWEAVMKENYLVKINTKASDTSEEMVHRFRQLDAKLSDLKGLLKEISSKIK

Take `CCCCCCCP(=O)(C(C)C)C(C)C` [C-1, 1-di(propan-2-yl)phosphorylheptane]: the EC50 at chicken TRPM8 (cTRPM8) was 0.25 µM; at human TRPM8 (hTRPM8) [1] it was 2.43 µM; on rat TRPM8 (rTRPM8) [2] it was “Rat TRPM8 showed intermediate EC50 values”.
For `O=C1NC(c2cccc([N+](=O)[O-])c2)=CCN1c1ccccc1O` [icilin, 1-(2-hydroxyphenyl)-4-(V3-nitrophenyl)-l,2,3,6-tetrahydropyrimidine-2-one], the “calcium imaging (10 μM) in transfected HEK293T cells” value is on record as “As expected, icilin activated only the mammalian orthologs” on human TRPM8 (hTRPM8) [3] and “As expected, icilin activated only the mammalian orthologs” at rat TRPM8 (rTRPM8) [4].
